Converted amounts (≈) assume the structure as drawn. The source made the active and inactive calls. No cut-off for these calls is given here.

The test system of experiment [1] is Staphylococcus aureus. As to the kind of experiment: Antibacterial activity against Staphylococcus aureus ATCC 29213 incubated for 18 hrs by serial two-fold dilution method. It counts as functional.
Experiment [2] has as its system Staphylococcus epidermidis. Put plainly: Antibacterial activity against Staphylococcus epidermidis ATCC 12228 incubated for 18 hrs by serial two-fold dilution method. It counts as functional.
The test system of experiment [3] is Staphylococcus aureus. As to the kind of experiment: Antibacterial activity against methicillin resistant Staphylococcus aureus ATCC 33592 incubated for 18 hrs by serial two-fold dilution method. It counts as functional.
In experiment [4] the test system is Staphylococcus aureus. As to the kind of experiment: Antibacterial activity against methicillin resistant Staphylococcus aureus ATCC 43300 incubated for 18 hrs by serial two-fold dilution method. It counts as functional.
For experiment [5], the system named is Staphylococcus aureus. As to the kind of experiment: Potency index, ratio of griseofamine A MIC to test compound MIC for antibacterial activity against methicillin resistant Staphylococcus aureus ATCC 33592. It counts as functional.
Experiment [6] has as its system Staphylococcus aureus. As to the kind of experiment: Potency index, ratio of vancomycin MIC to test compound MIC for antibacterial activity against methicillin resistant Staphylococcus aureus ATCC 33592. It counts as functional.
Experiment [7] concerns Staphylococcus aureus. Put plainly: Potency index, ratio of griseofamine A MIC to test compound MIC for antibacterial activity against methicillin resistant Staphylococcus aureus ATCC 43300. It counts as functional.
The test system of experiment [8] is Staphylococcus aureus. As to the kind of experiment: Potency index, ratio of vancomycin MIC to test compound MIC for antibacterial activity against methicillin resistant Staphylococcus aureus ATCC 43300. It counts as functional.
The subject of experiment [9] is Staphylococcus epidermidis. Put plainly: Bactericidal activity against Staphylococcus epidermidis ATCC 12228 incubated for 18 to 24 hrs. It counts as functional. As to conditions: time 18-24 hrs.
Experiment [10] relates to Staphylococcus aureus. As to the kind of experiment: Bactericidal activity against Staphylococcus aureus ATCC 29213 incubated for 18 to 24 hrs. It counts as functional. As to conditions: time 18-24 hrs.
The test system of experiment [11] is Staphylococcus aureus. Put plainly: Bactericidal activity against methicillin resistant Staphylococcus aureus ATCC 33592 incubated for 18 to 24 hrs. It counts as functional. Conditions: time 18-24 hrs.
Experiment [12] has as its system Staphylococcus aureus. As to the kind of experiment: Bactericidal activity against methicillin resistant Staphylococcus aureus ATCC 43300 incubated for 18 to 24 hrs. It counts as functional. Conditions: time 18-24 hrs.
The test system of experiment [13] is Staphylococcus aureus. As to the kind of experiment: Potency index, ratio of griseofamine A MIC to test compound MIC for antibacterial activity against Staphylococcus aureus ATCC 29213. It counts as functional.
In experiment [14] the test system is Staphylococcus aureus. Put plainly: Potency index, ratio of vancomycin MIC to test compound MIC for antibacterial activity against Staphylococcus aureus ATCC 29213. It counts as functional.
Experiment [15] deals with Staphylococcus aureus. Put plainly: Bactericidal activity against methicillin resistant Staphylococcus aureus ATCC 33592 at 2.5 times MIC by time-kill kinetics assay. It counts as functional, organism-based.
The test system of experiment [16] is Staphylococcus aureus. Put plainly: Bactericidal activity against methicillin resistant Staphylococcus aureus ATCC 33592 at 2.5 times MIC measured after 12 hrs by time-kill kinetics assay. It counts as functional, organism-based.
For experiment [17], the system named is Staphylococcus epidermidis. As to the kind of experiment: Drug resistance development in Staphylococcus epidermidis ATCC 12228 assessed as increase in MIC value measured after 8 passages by broth microdilution method. It counts as functional. A general note: Broth dilution looks for growth in wells or tubes with falling amounts of substance.
Experiment [18] deals with Staphylococcus aureus. Put plainly: Antibacterial activity against methicillin resistant Staphylococcus aureus ATCC 43300 infected in ICR mouse systemic infection model at 2.5 mg/kg, ip pretreated with bacteria for 30 mins followed by compound addition and measured for 7 days. As to conditions: time 7 day. It counts as functional.

For orientation: MIC means the lowest concentration that inhibits growth of the organism. As a reminder, the MBC is the lowest tested concentration that kills the bacteria rather than only halting them. Turning to `C/C(O)=C1\C(=O)[C@@H]2Cc3c([nH]c4ccccc34)[C@@H](c3ccc(-c4ccc(OC(F)(F)F)cc4)cc3)N2C1=O`, the minimal inhibitory concentration (MIC) worked out at 0.063 µg/mL (≈ 0.122 µM) against Staphylococcus aureus [1], 0.125 µg/mL (≈ 0.241 µM) in experiment [2], 0.063 µg/mL (≈ 0.122 µM) against Staphylococcus aureus [3] and 0.063 µg/mL (≈ 0.122 µM) with Staphylococcus aureus [4]. The Ratio with Staphylococcus aureus [5] came out at 128; in the experiment on Staphylococcus aureus [6], 8; in the experiment on Staphylococcus aureus [7], 128; in the experiment with Staphylococcus aureus [8] it was 8. Moreover, the MBC was determined as 1 µg/mL (≈ 1.93 µM) in experiment [9], 4 µg/mL (≈ 7.71 µM) in the experiment with Staphylococcus aureus [10], 4 µg/mL (≈ 7.71 µM) in the experiment on Staphylococcus aureus [11] and 4 µg/mL (≈ 7.71 µM) in the experiment on Staphylococcus aureus [12].
In the experiment on Staphylococcus aureus [1], `C/C(O)=C1\C(=O)[C@@H]2Cc3c([nH]c4ccccc34)[C@@H](c3ccc(-c4ccccc4)cc3)N2C1=O` yielded an MIC of 0.125 µg/mL (≈ 0.288 µM). In addition, the Ratio was found to be 64 in the experiment with Staphylococcus aureus [13] and 4 with Staphylococcus aureus [14].
In the case of `C/C(O)=C1\C(=O)[C@@H]2Cc3c([nH]c4ccccc34)[C@@H](c3ccc(-c4ccc(C(F)(F)F)cc4)o3)N2C1=O`, the MIC (with Staphylococcus aureus [1]; in [2]; with Staphylococcus aureus [3]; with Staphylococcus aureus [4]) was 0.25 µg/mL (≈ 0.508 µM) each time.
On to `O=C1/C(=C(/O)c2ccccc2)C(=O)N2[C@H](c3ccc(-c4cc(F)cc(F)c4)cc3)c3[nH]c4ccccc4c3C[C@@H]12`, for which the MIC in the experiment on Staphylococcus aureus [1] came to 0.25 µg/mL (≈ 0.469 µM); in experiment [2] it was 0.25 µg/mL (≈ 0.469 µM); with Staphylococcus aureus [3], 0.125 µg/mL (≈ 0.235 µM); in the experiment on Staphylococcus aureus [4], 0.125 µg/mL (≈ 0.235 µM).
In the case of `CC(C)=CCc1cccc2[nH]c3c(c12)C[C@H]1C(=O)/C(=C(\C)O)C(=O)N1[C@@H]3C`, the MIC (in the experiment with Staphylococcus aureus [1]; in experiment [2]; in the experiment with Staphylococcus aureus [3]; in the experiment on Staphylococcus aureus [4]) was 8 µg/mL (≈ 22 µM) throughout.
Regarding `C/C(O)=C1\C(=O)[C@@H]2Cc3c([nH]c4ccccc34)[C@@H](c3ccc(-c4ccc(F)cc4F)cc3)N2C1=O`, the MIC with Staphylococcus aureus [1] turned out to be 0.125 µg/mL (≈ 0.266 µM); in [2], 0.25 µg/mL (≈ 0.531 µM); in the experiment on Staphylococcus aureus [3] it was 0.25 µg/mL (≈ 0.531 µM); in the experiment with Staphylococcus aureus [4], 0.125 µg/mL (≈ 0.266 µM).
As for `C/C(O)=C1\C(=O)[C@@H]2Cc3c([nH]c4ccccc34)[C@@H](c3ccc(-c4ccc(F)cc4)o3)N2C1=O`, the MIC (against Staphylococcus aureus [1]; in [2]; against Staphylococcus aureus [3]; in the experiment with Staphylococcus aureus [4]) was 0.5 µg/mL (≈ 1.13 µM) throughout.
Turning to `CN[C@H](CC(C)C)C(=O)N[C@H]1C(=O)N[C@@H](CC(N)=O)C(=O)N[C@H]2C(=O)N[C@H]3C(=O)N[C@H](C(=O)N[C@H](C(=O)O)c4cc(O)cc(O)c4-c4cc3ccc4O)[C@H](O)c3ccc(c(Cl)c3)Oc3cc2cc(c3O[C@@H]2O[C@H](CO)[C@@H](O)[C@H](O)[C@H]2O[C@H]2C[C@](C)(N)[C@H](O)[C@H](C)O2)Oc2ccc(cc2Cl)[C@H]1O` [VANCOMYCIN], the MIC in experiment [2] is 0.5 µg/mL (≈ 0.345 µM); in experiment [17] it was 0.5 µg/mL. The minimal bactericidal concentration (MBC) in experiment [9] was determined as 0.25 µg/mL (≈ 0.173 µM); in the experiment with Staphylococcus aureus [10], 1 µg/mL (≈ 0.69 µM); against Staphylococcus aureus [11], 1 µg/mL (≈ 0.69 µM); in the experiment on Staphylococcus aureus [12], 1 µg/mL (≈ 0.69 µM). In addition, the result with Staphylococcus aureus [15] was Active. Besides, the outcome in the experiment with Staphylococcus aureus [16] was inactive. Moreover, in the experiment with Staphylococcus aureus [18], the Activity came to 62.5%.
Turning to `C/C(O)=C1\C(=O)[C@@H]2Cc3c(n(CC4CC4)c4ccccc34)[C@@H](c3ccc(-c4ccc(F)cc4)cc3)N2C1=O`, the minimal inhibitory concentration (MIC) in the experiment with Staphylococcus aureus [1] was 0.125 µg/mL (≈ 0.247 µM); in experiment [2], 0.25 µg/mL (≈ 0.494 µM); with Staphylococcus aureus [3], 0.125 µg/mL (≈ 0.247 µM); in the experiment with Staphylococcus aureus [4] it was 0.125 µg/mL (≈ 0.247 µM).
In the case of `C/C(O)=C1\C(=O)[C@@H]2Cc3c([nH]c4ccccc34)[C@@H](c3ccc(-c4ccccc4F)cc3)N2C1=O`, the MIC is 0.125 µg/mL (≈ 0.276 µM) against Staphylococcus aureus [1], 0.25 µg/mL (≈ 0.553 µM) in experiment [2], 0.25 µg/mL (≈ 0.553 µM) with Staphylococcus aureus [3] and 0.25 µg/mL (≈ 0.553 µM) against Staphylococcus aureus [4].
With `CC/C(O)=C1\C(=O)[C@@H]2Cc3c([nH]c4ccccc34)[C@@H](c3ccc(-c4cc(F)cc(F)c4)cc3)N2C1=O`, the MIC against Staphylococcus aureus [1] was found to be 0.063 µg/mL (≈ 0.13 µM); in [2], 0.125 µg/mL (≈ 0.258 µM); in the experiment on Staphylococcus aureus [3] it was 0.063 µg/mL (≈ 0.13 µM); against Staphylococcus aureus [4] it was 0.063 µg/mL (≈ 0.13 µM).

The values are drawn from ChEMBL document CHEMBL5608208, “Design, synthesis of griseofamine A derivatives and development of potent antibacterial agents against MRSA” (Eur J Med Chem, 2024).
